Measurements: patent US12383526B2, “Optimized sigma-1 agonist method of responder selection and treatment” (ANAVEX LIFE SCIENCES CORP., priority 2018, dated 2025)

Legend:
[1] = tested on: cholinergic muscarinic receptors; conditions: mice; cited from earlier work
SIGMAR1 = target: T1, SIGMAR1 (Mus musculus, UniProt O55242); conditions: mice; cited from earlier work
T1 construct: from tissue; host or cells: living mice (in vivo PET)

[2] = tested on: subjects with mild-to-moderate AD; experiment: KEM Formal Concept Analysis association rules (support, confidence, lift) linking patient characteristics with MMSE / ADCS-ADL response; parameters: species or system human
Source text: A small cohort, with the number of patient observations orders of magnitude smaller than number of attributes, constitutes an analytical challenge. In this study, an unsupervised Formal Concept Analysis method (FCA), based on Galois lattices, as implemented in the KEM software (v.3.6.2), was used to identify and rank phenotypic and genotypic biomarkers. No link is assumed in this analysis between biomarkers and outcomes, enabling a hypothesis free, data-driven, generation of all relations.
A total of 3,145,630 relations between all available features were explored. Stringent filtering excluded rules containing variables coding for the absence of DNA variants and medium RNA expression groups. Numerical filtering of rules involved the following thresholds: support (n>3), confidence (>50%), lift (≥1.2) and p-value (Fisher Exact Test or Mann-Whitney-Wilcoxon<0.05). The filtering steps led to a subset of 1,019 association rules linking clinical, genomic and transcriptomics patient characteristics with response at multiple time points. A second filtering step focused on relationships with response at week 57 only, raising […], and lift≥1.5, and excluding RNA expression, CYP variants and dose/concentration from Part A. This further reduced the number of rules to 15 associations linked to outcome as measured by Delta (with binarized discretization) or Slope of MMSE or ADCS-ADL at week 57. The 15 rules are presented in order of highest confidence and highest lift. The stringent filtering focused on relationships of response at week 57 (end of Part B), reduced the number of associations to only 15 linked to outcomes as measured by Delta or Slope MMSE or ADCS-ADL (Table 4). […] Higher concentrations improved Delta ADCS-ADL scores (p=0.03) (FIG. 2C).
The KEM® (Knowledge Extraction and Management) v 3.6.2 software was used to systematically extract relations between all variables collected. […]
P-values from two statistical tests were calculated for each association rule. […]

[3] = Plasma concentrations of ANAVEX2-73 and its metabolite ANAVEX19-144 in the 57-week study; type: in vivo, human; conditions: for Mean Concentration ANAVEX2-73, Max / Mean Concentration ANAVEX2-73, Mean / Mean Concentration ANAVEX2-73, Min: plasma
Method: A pharmacokinetics analysis was performed during Part A only. Blood samples were drawn at 12 and 11 time points after the first oral or IV administration during the first and second periods of Part A, respectively. Pharmacokinetic parameters included in the analysis consisted of maximum plasma drug concentration (C max), time to maximum plasma concentration during a dosing interval (t max), area under the curve from the time of dosing to the last measurable concentration (AUC0-t), mean elimination half-life (t ½), and the total body clearance for extravascular administration divided by the fraction of dose absorbed (CL/F).
Steady-state plasma levels of ANAVEX2-73 and its metabolite ANAVEX19-144 were assessed in Part B through blood samples collection at pre-specified time points (Weeks 12, 26, 36 and 48). Mean concentration values in ng/mL of each patient were then averaged. Table 14 illustrates mean plasma concentrations of ANAVEX2-73 and its metabolite ANAVEX19-144 during the 57-week study study.

T1 sequence (O55242 whole entry): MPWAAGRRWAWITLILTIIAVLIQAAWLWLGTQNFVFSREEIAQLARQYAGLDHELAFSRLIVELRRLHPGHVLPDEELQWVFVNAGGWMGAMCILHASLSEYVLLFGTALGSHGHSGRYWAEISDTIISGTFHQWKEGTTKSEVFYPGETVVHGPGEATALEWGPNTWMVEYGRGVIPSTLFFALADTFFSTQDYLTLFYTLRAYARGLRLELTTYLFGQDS

CN(C)CC1CCOC1(c1ccccc1)c1ccccc1.Cl (stereo not drawn) [ANAVEX2-73, tetrahydro-N,N-dimethyl-2,2-diphenyl-3-furanmethanamine hydrochloride]
modulation of cholinergic muscarinic receptors [1]: modulate cholinergic muscarinic receptors | target binding by PET scan (SIGMAR1): directly bind its target | Confidence, High Concentration Part B -> MMSE Slope Improve ([2]; Week 57, Support 5, nx 8, ny 7): 0.63 | Lift, High Concentration Part B -> MMSE Slope Improve ([2]; Week 57, Support 5, nx 8, ny 7): 1.88 | increase in probability of improved MMSE outcome ([2]; average blood concentration above 4 ng/mL in Part B, week 57): 1.88 fold | plasma concentration versus dose in the present study ([3]; 57-week study Part A, FIG. 2B): dose-dependent increase | Mean Concentration ANAVEX2-73, Max ([3]; Part A1 (Day 1-2)): 15.9 ng/mL | Mean Concentration ANAVEX2-73, Mean ([3]; Part A1 (Day 1-2)): 5.25 ng/mL | Mean Concentration ANAVEX2-73, Min ([3]; Part A1 (Day 1-2: within 2 days of first oral dose), N = 32 patients): 0.84 ng/mL | Mean Concentration ANAVEX2-73, Max ([3]; Part A2 (Day 3-12)): 8.44 ng/mL | Mean Concentration ANAVEX2-73, Mean ([3]; Part A2 (Day 3-12)): 2.11 ng/mL | Mean Concentration ANAVEX2-73, Min ([3]; Part A2 (Day 3-12)): 0.03 ng/mL | Mean Concentration ANAVEX2-73, Max ([3]; Part B (Week 5 to Week 57)): 11.58 ng/mL | Mean Concentration ANAVEX2-73, Mean ([3]; Part B (Week 5 to Week 57)): 3.8 ng/mL | Mean Concentration ANAVEX2-73, Min ([3]; Part B (Week 5 to Week 57)): 0 ng/mL
